Reference: paper PMC5556071, “ATR inhibition facilitates targeting of leukemia dependence on convergent nucleotide biosynthetic pathways” (Nature Communications, 2017)
“And” between values parts separate entries of the source, which are not always exact repeats. Equal entries are not always repeated.

Tested on: CEM cells
Experiment: Non-targeted LC-MS metabolite profiling: percent [13C6]glucose labeling and relative metabolite levels
Type: cell-based, human
Details: CEM cells, 12 h following release from G1 arrest, replicates #1-#6
Source text: To further investigate the functions of dCK and ATR at the G1/S transition in CEM cells, a non-targeted liquid chromatography mass spectrometry (LC-MS) assay was used to determine the utilization of labeled [^13C6]glucose and [^13C9,^15N3]deoxycytidine, the main substrates for de novo and salvage nucleotide biosynthesis, respectively. Of the 166 metabolites identified in CEM cells treated with VE-822 and/or dCKi, 105 metabolites found in all four treatment groups contained glucose-derived ^13C atoms. […] These metabolites included intermediates such as rUTP, rCTP and rCDP in the de novo dCTP biosynthesis (Fig. 1d). […] However, several deoxyribonucleotides, including dCTP, were below the limit of detection of the non-targeted LC-MS approach, raising the concern that the sensitivity of this assay is not sufficient to measure the contribution of the salvage pathway or the ratio of de novo and salvage biosynthesis to these pools. To address this problem, a newly developed targeted MS assay was developed (Fig. 1e and Supplementary Fig. 3). In this assay, samples containing either extracted dNTPs or hydrolyzed DNA from labeled cells are separated by LC for detection by a triple quadrupole mass spectrometer using multiple reaction monitoring (LC-MS/MS-MRM). The first (Q1) and third (Q3) quadrupoles function as mass filters, while the second (Q2) quadrupole serves as a collision chamber (Fig. 1e). For instance, to profile the biosynthetic composition of deoxycytidine (dC) derived from hydrolyzed DNA or dCTP, an intact, protonated dC ion is selected in Q1, followed by fragmentation of the glycosidic bond, which releases protonated cytosine in Q2, that is filtered in Q3 and detected to generate an ion chromatogram. The peak areas for the ion chromatograms of salvage [^13C9,^15N3]dC (red trace), de novo [^13C5]dC (black trace, from [^13C6]glucose) and unlabeled dC (gray trace) (Fig. 1e) are used to determine the relative contributions of the de novo and salvage routes both to dCTP pools and to DNA-incorporated dCTP.
Cells were transferred into RPMI-1640 without glucose and supplemented with 10% dialyzed FBS (Gibco) containing the following labeled substrates: precursors for de novo [U-^13C6]glucose (Sigma-Aldrich, 389374) at 11 mM; precursors for purine salvage [U-^13C10,^15N5]dA (Cambridge Isotopes, CIL 3896), [^15N5]dA (Cambridge Isotopes, NLM-3895) and [^15N5]dG (Cambridge Isotopes, NLM-3899) at 5 µM or as indicated; and precursors for pyrimidine salvage: [U-^13C9,^15N3]dC (Silantes, 124603602) and [U-^13C10,^15N2]dT (Cambridge Isotopes, CNLM-3902) at 5 µM and [^15N2]orotate (Cambridge Isotopes, NLM-1048) at indicated concentrations. The cells were incubated for 12 h or as indicated before sample collection and processing. […]
Non-targeted LC-MS metabolic assays. 1 x 10^6 cells were washed with ice-cold 150 mM ammonium acetate twice before adding 1 mL of ice-cold 80% methanol with 10 nM norvaline as an internal standard. After vigorous vortexing, samples were centrifuged at maximum speed, the aqueous layer was transferred to a glass vial and the metabolites were dried under vacuum. Metabolites were resuspended in 50 μL 70% acetonitrile (ACN) and 5 μL of this solution used for the mass spectrometer-based analysis. The analysis was performed on a Q Exactive (Thermo Scientific) in polarity-switching mode with positive voltage 4.0 kV and negative voltage 4.0 kV. The mass spectrometer was coupled to an UltiMate 3000RSLC (Thermo Scientific) UHPLC system. Mobile phase A was 5 mM ammonium acetate (NH4AcO), pH 9.9, B was acetonitrile and the separation achieved on a Luna […] NH2 100 A column (150 × 2.0 mm, Phenomenex). The flow was 200 μL/min, and the gradient ran from 15% A to 95% A in 18 min, followed by an isocratic step for 9 min and re-equilibration for 7 min. Metabolites were detected and quantified as area under the curve based on retention time and accurate mass (≤ 3 p.p.m.) using the TraceFinder 3.1 (Thermo Scientific). Relative amounts of […]

[1] = metabolite 2-HG (C02630), listed as V
[2] = metabolite 2-HIC (C03264), listed as V
[3] = metabolite 3PG (C00197), listed as V
[4] = metabolite 5-Oxoproline (C01879), listed as V
[5] = metabolite A (C00212), listed as V
[6] = metabolite ADP (C00008), listed as V
[7] = metabolite AMP (C00020), listed as V
[8] = metabolite ATP (C00002), listed as V
[9] = metabolite Ac-carnitine (C02571), listed as V
[10] = metabolite Ac-choline (C01996), listed as V
[11] = metabolite Aconitate (C00417), listed as V
[12] = metabolite Adenine (C00034), listed as V
[13] = metabolite Ala (C00041), listed as V
[14] = metabolite Allantoin (C02350), listed as V
[15] = metabolite Arg (C00062), listed as V
[16] = metabolite Arg-Succ (C03406), listed as V

CNCc1ccc(-c2cc(-c3nc(-c4ccc(S(=O)(=O)C(C)C)cc4)cnc3N)on2)cc1 [VE-822]
Relative level, Sarc (C00213) (listed as V): 1.3 (2×) and 1.2 and 0.569 and 0.751 and 0.6 | Relative level, Ser (C00065) (listed as V): 1.4 and 1.5 (2×) and 0.9 and 1.0 and 0.949 | Relative level, Shikimate (C00493) (listed as V): 1.3 and 1.2 and 1.5 and 1.1 and 0.8 (2×) | Relative level, Succ (C00042) (listed as V): 1.6 (2×) and 1.3 and 1.1 and 0.5 (2×) | Relative level, T (C00214) (listed as V): 1.1 (2×) and 1.3 (2×) and 1.2 and 1.4 | Relative level, Thr (C00188) (listed as V): 1.5 and 1.6 (2×) and 1.0 and 0.949 and 0.9 | Relative level, Thymine (C00178) (listed as V): 1.4 and 1.5 (2×) and 1.0 (2×) and 1.2 | Relative level, Trigonelline (C01004) (listed as V): 1.3 (3×) and 1.5 and 0.8 and 1.2 | Relative level, Trp (C00078) (listed as V): 1.4 and 1.5 (2×) and 0.9 (2×) and 1.0 | Relative level, Tyr (C00082) (listed as V): 1.4 and 1.6 (2×) and 0.9 (3×) | Relative level, Tyramine (C00483) (listed as V): 1.0 and 1.1 and 1.7 and 0.8 (2×) and 0.7 | Relative level, UDP (C00015) (listed as V): 2.4 and 1.3 and 1.6 and 1.1 and 0.7 and 0.6 | Relative level, UDP-Glc (C00029) (listed as V): 2.4 and 2.0 and 2.8 and 1.5 and 1.4 and 1.7 | Relative level, UDP-GlcNAc (C00043) (listed as V): 1.2 and 1.1 and 1.4 and 0.747 and 0.8 and 0.9 | Relative level, UMP (C00105) (listed as V): 2.6 and 2.3 and 2.5 and 2.0 and 0.7 (2×) | Relative level, UTP (C00075) (listed as V): 1.2 and 0.571 and 0.7 and 0.75 and 0.4 and 0.355 | Relative level, Uracil (C00106) (listed as V): 1.2 (2×) and 2.0 and 2.6 and 1.1 and 0.8 | Relative level, Uric Acid (C00366) (listed as V): 0.5 and 0.9 and 1.4 and 0.242 and 0.282 and 0.253 | Relative level, Urocanate (C00785) (listed as V): 0.542 and 1.3 and 1.4 and 0.452 and 0.8 and 0.7 | Relative level, Val (C00183) (listed as V): 1.1 and 1.3 (2×) and 1.5 and 0.9 (2×) | Relative level, Vit-C (C00072) (listed as V): 5.1 and 1.4 (2×) and 2.3 and 0.5 and 0.2 | Relative level, Xanthine (C00385) (listed as V): 0.9 and 1.7 and 2.5 and 2.4 and 0.843 and 0.6 | Glucose labeling, 2-HG [1]: 9.00% and 8.24% and 8.56% and 6.59% and 3.26% and 5.24% | Relative level, 2-HG [1]: 1.5 and 1.0 and 1.3 and 0.9 and 0.545 and 0.5 | Glucose labeling, 2-HIC [2]: -2.22e-14% and 0.00% (5×) | Relative level, 2-HIC [2]: 1.2 (2×) and 1.5 (2×) and 0.8 and 0.9 | Glucose labeling, 2-KIC (metabolite 2-KIC (C00233)): 0.00% | Relative level, 2-KIC (metabolite 2-KIC (C00233), listed as V): 1.1 and 1.2 and 1.3 and 0.9 (2×) and 0.8 | Glucose labeling, 2-Oxoadipate (metabolite 2-Oxoadipate (C00322)): 0.00% | Relative level, 2-Oxoadipate (metabolite 2-Oxoadipate (C00322), listed as V): 1.3 and 1.0 (2×) and 1.4 and 1.1 and 0.759 | Glucose labeling, 2-Oxosuccinamate (metabolite 2-Oxosuccinamate (C02362)): 0.0737% | Relative level, 2-Oxosuccinamate (metabolite 2-Oxosuccinamate (C02362), listed as V): 0.8 and 0.9 and 1.6 and 2.4 and 0.5 and 0.438 | Glucose labeling, 3PG [3]: 98.64% and 92.25% and 93.08% and 80.82% and 100.00% (2×) | Relative level, 3PG [3]: 1.3 and 0.262 and 0.5 (2×) and 0.0899 and 0.0949 | Glucose labeling, 4-OH-PheLac (metabolite 4-OH-PheLac (C03672)): 0.00% | Relative level, 4-OH-PheLac (metabolite 4-OH-PheLac (C03672), listed as V): 1.0 and 1.1 and 1.3 and 0.7 and 0.5 and 0.6 | Glucose labeling, 5-Oxoproline [4]: 1.06% and 0.96% and 1.16% and 0.74% (2×) and 0.98% | Relative level, 5-Oxoproline [4]: 1.0 (2×) and 1.1 (2×) and 0.9 and 0.7 | Glucose labeling, 5M-adenosine (metabolite 5M-adenosine (C00170)): 0.00% | Relative level, 5M-adenosine (metabolite 5M-adenosine (C00170), listed as V): 1.7 and 1.9 (2×) and 1.3 (2×) and 1.4 | Glucose labeling, A [5]: 0.0217% and 0.39% and 0.36% and 0.0233% and 0.0286% and 0.01% | Relative level, A [5]: 1.7 and 1.1 and 1.2 and 4.1 and 1.0 and 1.8 | Glucose labeling, ADP [6]: 63.63% and 60.29% and 63.02% and 59.23% and 57.33% and 59.16% | Relative level, ADP [6]: 2.2 and 1.0 and 1.4 and 1.2 and 0.6 (2×) | Glucose labeling, AMP [7]: 58.98% and 57.42% and 62.07% and 26.04% and 58.67% and 50.37% | Relative level, AMP [7]: 2.8 and 1.7 and 2.2 and 3.0 and 0.8 and 0.7 | Glucose labeling, ATP [8]: 65.50% and 64.37% and 65.03% and 64.82% and 61.07% and 61.72% | Relative level, ATP [8]: 1.5 and 0.6 and 0.849 and 0.9 and 0.466 and 0.5 | Glucose labeling, Ac-carnitine [9]: 29.64% and 30.01% and 28.25% and 21.49% and 24.07% and 21.63% | Relative level, Ac-carnitine [9]: 1.1 (2×) and 1.2 and 0.7 (2×) and 0.8 | Glucose labeling, Ac-choline [10]: 0.00429% and 0.00459% and 0.00523% and 0.00396% and 0.00509% and 0.00552% | Relative level, Ac-choline [10]: 0.746 and 0.8 (3×) and 0.76 and 0.9 | Glucose labeling, Aconitate [11]: 33.62% and 26.91% and 31.71% and 21.17% and 28.64% and 25.94% | Relative level, Aconitate [11]: 1.0 and 0.433 and 0.659 and 0.53 and 0.3 and 0.355 | Glucose labeling, Adenine [12]: 1.88e-5% and 1.21e-5% and 0.00361% and 1.25e-5% and 1.11e-5% and 0.0013% | Relative level, Adenine [12]: 1.8 and 3.0 and 3.1 and 41.9 and 2.1 and 1.5 | Glucose labeling, Ala [13]: 57.46% and 55.60% and 53.77% and 47.90% and 47.23% and 52.00% | Relative level, Ala [13]: 1.3 and 1.5 (2×) and 0.9 (2×) and 1.0 | Glucose labeling, Allantoin [14]: 0.00% (5×) and -2.22e-14% | Relative level, Allantoin [14]: 1.3 (2×) and 1.7 and 1.1 and 0.7 and 1.0 | Glucose labeling, Arg [15]: 0.00452% and 0.00428% and 0.00453% and 0.00405% and 0.00437% and 0.00476% | Relative level, Arg [15]: 1.5 and 1.7 and 1.6 and 0.9 (2×) and 1.1 | Glucose labeling, Arg-Succ [16]: 10.44% and 8.30% and 5.56% and 3.28% and 1.95% and 6.31% | Relative level, Arg-Succ [16]: 1.4 and 1.3 and 1.5 and 0.9 and 0.6 and 0.5 | Glucose labeling, Asn (metabolite Asn (C00152), listed as V): 5.14e-5% and 2.85e-6% and 2.32e-6% and 0.000702% and 2.84e-6% and 2.39e-6%
